Reference: patent publication US20090221069A1, “METHOD FOR AUGMENTING THE ABILITY OF T-CELLS AND OTHER CELLS FOR FIGHTING DISEASE AND INVADE DISEASED ORGANS, FOR ELEVATING CD3 ZETA AND TNF-ALPHA EXPRESSION IN T-CELLS, AND MIXING T-CELL BOOSTING AND KIT PARTICULARLY USEFUL IN SUCH METHOD” (priority 2005, published 2009)
Like-named read-outs stand apart in the source and are kept apart here. No end group written: not given here.

Tests used:
[1] = test system: ion channel; settings: from manufacturer's data sheets and/or the literature; cited from earlier work
[2] = test system: normal resting human T-cells; assay: Cytokine (TNFα, IFNγ, IL-10, IL-4) secretion by resting T-cells, sandwich ELISA; format: cell-based; settings: for cytokine secretion profile (TNFα, IFNγ, IL-4, IL-10): data not shown; for TNFα secretion in resting normal human T-cells: highest concentration used (DTX-K 100 nM), FIG. 18a
Experimental: Human T-cells: Normal human T-cells were purified from peripheral blood of healthy donors as described (19, 23, 61), and the resulting cell population, containing ≧90% T-cells, was suspended in RPMI medium supplemented with 10% FCS, 1% LGlutamine and antibiotics (Biological Industries, Bet Haemek, Israel) and maintained at 2×10^6 cells/ml (37° C./5% CO2).
Determination of TNFα, IFNγ, IL-10 and IL-4 by ELISA: Freshly-purified normal resting human T-cells (2×10^6/ml) were incubated in 24-well plates (Costar, Corning, N.Y.) and the various channel blockers were added. Importantly, no other stimulating molecule (e.g. phorbol esters, antigens, anti-CD3/CD28 mAbs) was added. Cytokine […] levels were measured in supernatants after 24 hr for TNFα and IFNγ and after 72 hr for IL-10 and IL-4, by quantitative sandwich ELISA (R&D, Minneapolis, Minn.), according to the manufacturer's instructions.

[3] = test system: Normal human T-cells; format: cell-based
Experimental: Normal human T-cells, isolated from fresh peripheral blood lymphocytes, were treated with 10 nM of neurotransmitters: either GnRH-II or dopamine (30 min or 24 hr at 37° C.). Following this neurotransmitter treatment, the T-cells were washed with phosphate-buffered saline (PBS) and […] with paraformaldehyde (PFA) for 20 min at room temperature (1×10^6 cells resuspended in 50 μl PBS+100 μl 0.5% PFA). The T-cells were then washed again with PBS and subjected to single immunofluorescence staining, using a mouse anti-human TCR/CD3zeta chain subunit (also called CD247) mAb (Serotec) at 1:100 dilution/1×10^6 cells, diluted in 10 μg/ml digitonin (Sigma) cold solution, for 30 min on ice. For isotype control, cells were stained with normal mouse serum (Jackson Immunoresearch Laboratories). The cells were then stained with a fluorescein isothiocyanate (FITC)-conjugated anti-mouse IgG (100 μl of 1:100 dilution; Jackson). Cells stained with the second Ab only served as additional negative controls. Fluorescence profiles were recorded in a FACSort.

[4] = test system: human cancer growing in SCID mice; format: in vivo
[5] = test system: human T-cells; settings: data not shown
[6] = SCID mice, preliminary evidence

O=C(O)c1cc([N+](=O)[O-])ccc1NCCCc1ccccc1 [NPPB]
effective concentrations [1]: 100 to 200 µM

CCCCCCCCCCCCCC(=O)O[C@@H]1[C@@H](C)[C@@]2(O)[C@@H](C=C(CO)C[C@]3(O)C(=O)C(C)=C[C@@H]23)[C@@H]2C(C)(C)[C@]12OC(C)=O [PMA]
cytokine secretion profile (TNFα, IFNγ, IL-4, IL-10) [2]: increased secretion of TNFα, IFNγ, IL-4 and IL-10

C=C[C@H]1C[N@@]2CC[C@H]1C[C@H]2[C@H](O)c1ccnc2ccc(OC)cc12 [Quinine]
TNFα secretion in resting normal human T-cells ([2]; 24 hours exposure): somewhat weaker effect
effective concentrations [1]: 1 to 10 µM

NCCc1ccc(O)c(O)c1 [dopamine]
number (percentage) of cells expressing CD3zeta [3]: clear increase
number of T-cells expressing CD3zeta, longer-term exposure versus 30 minutes [3]: significantly more pronounced
overall in vivo activity of human tumor-specific T-cells against human cancer (cancer rejection) ([4]; mouse, in vivo): augmented significantly

N[C@@H](CCC(=O)O)C(=O)O [glutamate]
overall in vivo activity of human tumor-specific T-cells against human cancer (cancer rejection) [4, 6]: augmented significantly

Dendrotoxin-K
dose dependence of TNFα secretion triggering ([2]; 24 hours exposure, FIG. 18b): dose dependent
TNFα secretion in resting normal human T-cells ([2]; 24 hours exposure): marked TNFα secretion
TNFα secretion by T-cells from six different individuals ([2]; 24 hr, 100 nM, FIG. 18c-h): triggered marked TNFα secretion
cytokine secretion profile (TNFα, IFNγ, IL-4, IL-10) [2]: selectively increased only TNFα secretion
effect on cell survival of human T-cells [5]: no significant effect
effect on proliferation of human T-cells [5]: no significant effect

GnRH-II (QHWSHGWYPG; ends and bridges not checked; UniProt O43555 24-33, looked up)
intensity of CD3zeta expression (number of CD3zeta per T-cell) ([3]; 10 nM, 30 minutes exposure): very significant increase
number (percentage) of cells expressing CD3zeta ([3]; 10 nM, 30 minutes exposure, no other molecules): very significant increase
overall in vivo activity of human tumor-specific T-cells against human cancer (cancer rejection) [4, 6]: augmented significantly

Kaliotoxin
TNFα secretion in resting normal human T-cells ([2]; 24 hours exposure): somewhat weaker effect
effective concentrations [1]: 0.001 to 0.1 µM
